Data set [1] can be described thus: Fraction of non-dissociated tris-ligand complex at 10 μM, pH 7.40 (UV-vis and speciation calculation). The class given is physicochemical. To be noted: pH 7.4, constants determined at 0.20 M KCl. An excerpt: As a first step, interaction of the tris-ligand In(III) complexes with various LMM blood serum components was investigated and compared to that of GaQ3 studied formerly in our research group. The LMM compounds are considered to be more mobile than the high molecular mass components (HMM) such as proteins, and generally their reaction is characterized by faster kinetics. The role of serum compounds might have importance on the distribution of the In(III) complexes since they may be responsible for (partial) displacement of the originally coordinated ligand and they can also form mixed-ligand complexes. […] All the measurements in this work were performed at 25 °C as most of the stability constants used for the modeling calculations published in the literature were determined at this temperature. UV–vis spectra recorded for the tris-ligand complexes at 10 μM concentration (see Fig. S1a for InQ3) in this buffer show 94%, 90% and < 20% non-dissociated InQ3, InD3 and InM3, respectively, which corresponds well to the fractions obtained using the stability constants determined at 0.20 M KCl: 90% (InQ3), 86% (InD3) and 9% InM3 and 6% InM^2+. […]
For the preparation of stock solutions and samples, Milli-Q water was used. Exact concentration of ligand stock solutions was determined via pH-potentiometric titrations (vide infra). […]

The target of data set [2] is T1, human serum albumin (HSA) (Homo sapiens, UniProt P02768).
T1 construct: purchased Sigma-Aldrich A8763
Nature of the data set: HSA binding by steady-state spectrofluorometry (complex fluorescence and Trp-214 quenching). The source says: The effect of HSA on the intrinsic fluorescence of InQ3 and InD3 was studied. Similarly to GaQ3 and tris(8-hydroxy-quinolinato)Al(III), InQ3 and InD3 are also fluorescent metal complexes (see Table 2 for λmax values). […] The fluorescence intensity of InQ3 increased in the presence of HSA, and emission intensity values measured at 530 nm show a saturation character plotted against the added HSA equivalents. […] At the same time, UV–vis absorbance spectra of InQ3 are only slightly altered by the binding interaction. Enhanced fluorescence of InQ3, and fast binding kinetics confirm the binding of the non-dissociated metal complex to the protein via intermolecular interactions. Fluorometric data can be excellently fitted with the computer program PSEQUAD [43] assuming a single site model (see Fig. 3), and a conditional binding constant of log K′ = 5.0 ± 0.1 was calculated for the HSA – InQ3 adduct. This constant indicates a moderate affinity of the complex on HSA.
Binding at the site I hydrophobic pocket of HSA can be followed via the selective excitation (λEX = 295 nm) of the single Trp (Trp-214) located close to this site. Trp-214 is sensitive to the binding events taking place at or near this site. The InQ3 complex quenched effectively the fluorescence of HSA, and a quenching constant (K’Q) could be computed based on the measured spectra: log K’Q = 5.1 ± 0.1.
Fluorescence studies were implemented by a Fluoromax (Horiba Jobin Yvon) fluorometer in 1 cm quartz cells. Samples contained 1 μM HSA or (apo)Tf and various protein-to-metal complex (or InCl3) ratios (up to complex/HSA = 1:30) were used. The excitation wavelength was 295 nm and 280 nm for HSA and Tf binding studies, respectively; emission intensity was registered between 300 and 450 nm. Intrinsic fluorescence of complex InQ3 was also followed at λEX = 367 nm, and λEM = 450 – 650 nm. In this setup, the complex concentration was ca. 10 or 20 μM, and protein (HSA, (apo)Tf) concentration was varied between 0 and 130 μM, and residual fluorescence of the proteins were subtracted if it was necessary. […] Computer program PSEQUAD [43] was utilized for the calculation of binding constants (K’) for HSA – InQ3 adducts similar to the approach described in our former works. Calculations were always based on data obtained from at least two independent measurements.

Values joined by “and” are separate entries in the source; they are usually repeats but may differ in a detail not shown here. Equal values may be shown once.

T1 sequence (P02768 25-609): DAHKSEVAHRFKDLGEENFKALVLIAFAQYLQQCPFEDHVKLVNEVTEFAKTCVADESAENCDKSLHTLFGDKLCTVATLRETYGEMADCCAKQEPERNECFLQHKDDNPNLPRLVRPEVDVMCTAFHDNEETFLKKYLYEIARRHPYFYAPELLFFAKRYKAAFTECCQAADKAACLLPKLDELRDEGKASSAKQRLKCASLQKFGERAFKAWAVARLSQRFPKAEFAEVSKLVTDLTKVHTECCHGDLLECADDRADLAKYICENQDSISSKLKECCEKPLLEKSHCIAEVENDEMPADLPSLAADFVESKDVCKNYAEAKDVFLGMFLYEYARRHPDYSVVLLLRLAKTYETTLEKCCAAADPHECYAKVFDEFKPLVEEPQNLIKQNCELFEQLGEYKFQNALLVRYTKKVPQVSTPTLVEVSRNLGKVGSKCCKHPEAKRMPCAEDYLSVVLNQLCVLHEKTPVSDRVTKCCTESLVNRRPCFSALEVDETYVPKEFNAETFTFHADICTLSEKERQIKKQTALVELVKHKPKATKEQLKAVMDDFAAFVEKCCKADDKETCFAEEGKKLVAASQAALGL

As to `Cc1c([O-])c(=O)ccn1C.Cc1c([O-])c(=O)ccn1C.Cc1c([O-])c(=O)ccn1C.[In+3]` [InD3], in data set [1], the “fraction of tris-ligand complex obtained using the stability constants” value is listed as 86%. In addition, the “binding on HSA (fluorescence intensities additive)” value in data set [2] (fluorometry, pH 7.40) is “no considerable binding”.
Take `[In+3].[O-]c1cccc2cccnc12.[O-]c1cccc2cccnc12.[O-]c1cccc2cccnc12` [InQ3, Tris(8-Quinolinolato)indium(III)]: the “fraction of tris-ligand complex obtained using the stability constants” value in data set [1] is listed as 90%. Besides, the “log K’Q (quenching constant)” value in data set [2] (Trp-214 quenching, λEX = 295 nm, pH 7.40) was determined as 5.1 ± 0.1. Further, in data set [2] (fluorometry), the “time of the interaction with HSA” value is “within a few seconds”. In addition, the “log K′ (conditional binding constant, HSA adduct)” value in data set [2] (fluorometry of the complex, single site model, pH 7.40, 25 °C) is 5.0–5.1 and 5.0 ± 0.1.
